Laboratory results: US5637591A, “Antimicrobial and anticollagenase activity of phenazine-5, 10-dioxide and derivatives” (Fuji ImmunoPharmaceuticals Corp., priority 1995, dated 1997)
In brackets after ≈: the same amount, converted by molar mass. Where two headings read alike, the source gives them in different places.

Columns and labels:
[1] = tested on: Escherichia coli strain DH5α; assay: zone inhibition method on agar plate; type: cell-based; conditions: 10 μl of 1 mg/ml on 3 mm paper disk, overnight 37° C., radius from center of disk; for zone of inhibition at 1000 µg/mL: Escherichia coli, read-out: E. coli Clear Zone
Method: (§1) Solutions of the agents were tested for activity against Escherichia coli strain DH5α by a zone inhibition method, and against P. gingivalis strain 2561 by addition to plating medium to determine minimum inhibitory concentrations (M/C). For the zone inhibition study, a suspension of E. coli was spread on the surface of an agar plate. A 3 mm diameter paper disk was placed on the seeded agar surface, and 10 μl of solution of each compound formulated at 1 mg/ml was added to the disk. Plates were incubated overnight at 37° C. The radius of the zone of inhibition was measured from the center of the disk to the edge of the E. coli bacterial lawn. For determination of MIC, drug solutions were mixed with plating medium to produce a range of final drug concentrations. Media with drug were plated in the wells of 24-well plates. A drop of bacterial suspension containing 2-5×10^2 CFU P. gingivalis was placed on each well. Plates were incubated 1 week in an anaerobic chamber at 37° C.

[2] = tested on: P. gingivalis strain 2561; assay: minimum inhibitory concentration by addition to plating medium; type: cell-based; conditions: for MIC: Porphyromonas gingivalis, 2561, 168 h
Method: as §1

Fusobacterium nucleatum = assay: anaerobic liquid culture growth inhibition, OD 650 nm; type: cell-based; conditions: read-out: IC50 Fusobacterium nucleatum
Bacteroides fragilis = assay: as above; type: cell-based; conditions: read-out: IC50 Bacteroides fragilis
Bacteroides levii = assay: as above; type: cell-based; conditions: Porphyromonas levii, read-out: IC50 Bacteroides levii
Clostridium perfringens = assay: microbe, parasite or virus in culture; type: cell-based; conditions: read-out: IC50 Clostridium perfringens
[3] = tested on: Fusobacterium necrophorum; assay: anaerobic liquid culture growth inhibition, OD 650 nm; type: cell-based; conditions: read-out: IC50 Fusobacterium necrophorum
[4] = tested on: Peptostreptococcus anaerobius; assay: as above; type: cell-based; conditions: read-out: IC50 Peptostreptococcus anaerobius
[5] = tested on: Porphyromonas gingivalis 2561; assay: as above; type: cell-based
[6] = tested on: Porphyromonas gingivalis RB-22D-1; assay: as above; type: cell-based
A. act and/or P. gin = conditions: background summary; cited from earlier work
[7] = tested on: anaerobic bacterial species; assay: anaerobic liquid culture growth inhibition, whole panel; type: cell-based; conditions: all species of Table 4; read-out: susceptibilities (IC50) of the various anaerobic species
Method: The concentrations of the various preferred substituted phenazine-5,10-dioxide compounds necessary to inhibit growth by 50% (IC50 values) were determined for a variety of anaerobic bacterial species. Compounds were individually diluted into liquid growth media, which along with suspensions of bacterial monocultures were added to the wells of 96-well plates. Cultures were incubated anaerobically overnight, and growth was assessed by measuring optical density at 650 nm. IC50 values were determined as the compound concentration producing a turbidity reading equal to 50% of the maximum. Again, results with Tetracycline are shown for comparison.

[8] = tested on: purified collagenase from P. gingivalis; assay: anti-collagenase activity, 3H-collagen hydrolysis; type: biochemical; conditions: for % Inhibition of collagenase: 24 h at 25° C.
Method: Collagenase activity in the presence of the preferred compound 2-aminophenazine-5,10-dioxide and in the presence of Tetracycline were measured by incubating ^3 H-collagen with purified collagenase from P. gingivalis using increasing drag concentrations. After 24 h at 25° C., unhydrolyzed collagen fibers were removed from the mixture by centrifugation, and the specific activity of ^3 H in the supernatant quantified as a measure of hydrolyzed collagen. Percent inhibition was determined by subtracting the value in the presence of test compound from the control value, then dividing this quantity by the control value [(control-compound)/control×100].

P. gingivalis = assay: bone loss after oral colonization with P. gingivalis in mice, systemic administration; type: in vivo, BALB/c mice
Method: An animal model for testing the antimicrobial activity of the invention against P. gingivalis was conducted by inducing oral colonization of the microbe in BALB/c mice. Drug (2-methylphenazine-5,10-dioxide or Tetracycline) or control (2.5% cyclodextran) was administered intraperitoneally once each day for 25 days (2-methylphenazine-5,10-dioxide) or 40 days (Tetracycline). On the day following the last dose administration, the rear molars of the mice were swabbed and the swabs incubated in a growth medium to assess the presence of P. gingivalis. Mice were then sacrificed and jaw bones harvested for evaluation of bone loss.

[9] = Porphyromonas gingivalis, 2561, anaerobic overnight, OD 650 nm, read-out: IC50 Porphyromonas gingivalis 2561
[10] = RB22D1, anaerobic overnight, OD 650 nm, read-out: IC50 Porphyromonas gingivalis RB-22D-1
[11] = MIC on a molar basis, read-out: P. gingivalis MIC
[12] = complete inhibition of growth, 1 week anaerobic, 37° C., read-out: P. gingivalis MIC

Structure (SMILES)	IC50 (Fusobacterium nucleatum; anaerobic overnight, OD 650 nm) [µg/mL]	IC50 (Bacteroides fragilis; anaerobic overnight, OD 650 nm) [µg/mL]	IC50 (Bacteroides levii; anaerobic overnight, OD 650 nm) [µg/mL]	IC50 (Clostridium perfringens) [µg/mL]	IC50 ([3]; anaerobic overnight, OD 650 nm) [µg/mL]	IC50 ([4]; anaerobic overnight, OD 650 nm) [µg/mL]	IC50 [5, 9] [µg/mL]	IC50 [6, 10] [µg/mL]	zone of inhibition at 1000 µg/mL [1] [mm]	MIC [2, 11] [µM]	MIC [2, 12] [µg/mL]	Activity against A. act and/or P. gin (A. act and/or P. gin)	also measured
[O-][n+]1c2ccccc2[n+]([O-])c2cc(O)c(O)cc21 [2,3-dihydroxyphenazine-5,10-dioxide]	> 10	> 10	> 10	> 10	> 10	> 10	5 (≈ 20.5 µM)	2 (≈ 8.19 µM)	–	–	–	–	E. coli Clear Zone [1]: inactive; antimicrobial activity against P. gingivalis [2]: inactive; P. gingivalis MIC (μM) ([2]; MIC on a molar basis): inactive; P. gingivalis MIC ([2]; complete inhibition of growth, 1 week anaerobic, 37° C.): inactive
COc1ccc2c(c1)[n+]([O-])c1ccc(N)cc1[n+]2[O-] [2-amino-7-methoxyphenazine-5,10-dioxide, 2-amino,7-methoxyphenazine-5,10-dioxide]	–	–	–	–	–	–	0.015 (≈ 0.0583 µM)	0.08 (≈ 0.311 µM)	–	–	–	–	–
[O-][n+]1c2ccccc2[n+]([O-])c2c3cccnc3c(O)cc21 [2-hydroxy-3,4-iminopropylphenazine-5,10-dioxide]	> 10	1 (≈ 3.58 µM)	2 (≈ 7.16 µM)	0.1 (≈ 0.358 µM)	6.5 (≈ 23.3 µM)	0.1 (≈ 0.358 µM)	0.08 (≈ 0.286 µM)	0.18 (≈ 0.645 µM)	17	0.112	0.031	–	–
[O-][n+]1c2ccccc2[n+]([O-])c2cc(O)ccc21 [2-hydroxyphenazine-5,10-dioxide]	> 10	5 (≈ 21.9 µM)	0.2 (≈ 0.876 µM)	1 (≈ 4.38 µM)	0.45 (≈ 1.97 µM)	0.45 (≈ 1.97 µM)	0.62 (≈ 2.72 µM)	0.22 (≈ 0.964 µM)	15	0.07	0.016	–	concentration range of activity against P. gingivalis ([2]; molar basis): nanomolar concentration range
CC1(C)S[C@@H]2[C@H](NC(=O)[C@H](N)c3ccc(O)cc3)C(=O)N2[C@H]1C(=O)O [Amoxicillin]	–	–	–	–	–	–	–	–	–	–	–	ineffective	–
Cc1ncc([N+](=O)[O-])n1CCO [Metronidazole]	–	–	–	–	–	–	–	–	–	–	–	ineffective	–
CC1(C)S[C@@H]2[C@H](NC(=O)Cc3ccccc3)C(=O)N2[C@H]1C(=O)O [Penicillin G]	–	–	–	–	–	–	–	–	–	–	–	ineffective	–
CN(C)[C@@H]1C(O)=C(C(N)=O)C(=O)[C@@]2(O)C(O)=C3C(=O)c4c(O)cccc4[C@@](C)(O)[C@H]3C[C@@H]12 [Tetracycline, reference compound]	–	–	–	0.06 (≈ 0.135 µM)	–	–	–	–	10	–	–	–	MIC ([2]; read-out: P. gingivalis MIC): 0.5 µg/mL; MIC ([2]; read-out: P. gingivalis MIC (μM)): 1.13 µM; IC50 (Fusobacterium nucleatum): 0.16 µg/mL (≈ 0.36 µM); IC50 (Bacteroides fragilis): 0.1 µg/mL (≈ 0.225 µM); IC50 (Bacteroides levii): 0.1 µg/mL (≈ 0.225 µM); IC50 [3]: 0.03 µg/mL (≈ 0.0675 µM); IC50 [4]: 0.03 µg/mL (≈ 0.0675 µM); IC50 ([5]; Porphyromonas gingivalis, 2561, read-out: IC50 Porphyromonas gingivalis 2561): 0.02 µg/mL (≈ 0.045 µM); IC50 ([6]; RB22D1, read-out: IC50 Porphyromonas gingivalis RB-22D-1): 0.06 µg/mL (≈ 0.135 µM); IC50 [7]: ≤ 0.1 µg/mL; % Inhibition of collagenase ([8]; 1 μg/ml): 7.6%; % Inhibition of collagenase ([8]; 10 μg/ml): 31%; % Inhibition of collagenase ([8]; 100 μg/ml): 68%; anti-collagenase IC50 ([8]; estimated from Table 5): about 56 μg/ml; Bone Loss (BLU) Average ± SD (P. gingivalis; Bacterial Infection, 5 mg/kg intraperitoneally once each day × 40 d, 0.33 mm = 1 BLU): 7.21 ± 0.73 BLU; effect of treatment on bone loss (P. gingivalis; infected mice, IP daily, 25 d (2-methylphenazine-5,10-dioxide) or 40 d (Tetracycline)): did not effect the bone loss
[O-][n+]1c2ccccc2[n+]([O-])c2ccccc21 [phenazine-5,10-dioxide]	3.5 (≈ 16.5 µM)	3 (≈ 14.1 µM)	2.5 (≈ 11.8 µM)	1 (≈ 4.71 µM)	0.45 (≈ 2.12 µM)	0.2 (≈ 0.942 µM)	–	–	19	0.296	0.063	–	–
